PMC11345841, “Exploring 2-Sulfonylpyrimidine Warheads as Acrylamide Surrogates for Targeted Covalent Inhibition: A BTK Story” (Journal of Medicinal Chemistry, 2024)
Where a chain is given by its changes, count along the chain named. Like-named read-outs stand apart in the source and are kept apart here.

Tests used:
Experiment in all cases: KINOMEscan ScanTK
Assay type in all cases: binding
[1] = molecular target: T1, ABL1(H396P)-nonphosphorylated (Homo sapiens, UniProt P00519, H396P)
T1 construct: purchased Eurofins DiscoverX KINOMEscan (scanTK)

FLT3(D835V) = molecular target: T2, FLT3(D835V) (Homo sapiens, UniProt P36888, D835V)
T2 construct: purchased Eurofins DiscoverX KINOMEscan (scanTK)
T2 sequence (P36888 27-993 D835V): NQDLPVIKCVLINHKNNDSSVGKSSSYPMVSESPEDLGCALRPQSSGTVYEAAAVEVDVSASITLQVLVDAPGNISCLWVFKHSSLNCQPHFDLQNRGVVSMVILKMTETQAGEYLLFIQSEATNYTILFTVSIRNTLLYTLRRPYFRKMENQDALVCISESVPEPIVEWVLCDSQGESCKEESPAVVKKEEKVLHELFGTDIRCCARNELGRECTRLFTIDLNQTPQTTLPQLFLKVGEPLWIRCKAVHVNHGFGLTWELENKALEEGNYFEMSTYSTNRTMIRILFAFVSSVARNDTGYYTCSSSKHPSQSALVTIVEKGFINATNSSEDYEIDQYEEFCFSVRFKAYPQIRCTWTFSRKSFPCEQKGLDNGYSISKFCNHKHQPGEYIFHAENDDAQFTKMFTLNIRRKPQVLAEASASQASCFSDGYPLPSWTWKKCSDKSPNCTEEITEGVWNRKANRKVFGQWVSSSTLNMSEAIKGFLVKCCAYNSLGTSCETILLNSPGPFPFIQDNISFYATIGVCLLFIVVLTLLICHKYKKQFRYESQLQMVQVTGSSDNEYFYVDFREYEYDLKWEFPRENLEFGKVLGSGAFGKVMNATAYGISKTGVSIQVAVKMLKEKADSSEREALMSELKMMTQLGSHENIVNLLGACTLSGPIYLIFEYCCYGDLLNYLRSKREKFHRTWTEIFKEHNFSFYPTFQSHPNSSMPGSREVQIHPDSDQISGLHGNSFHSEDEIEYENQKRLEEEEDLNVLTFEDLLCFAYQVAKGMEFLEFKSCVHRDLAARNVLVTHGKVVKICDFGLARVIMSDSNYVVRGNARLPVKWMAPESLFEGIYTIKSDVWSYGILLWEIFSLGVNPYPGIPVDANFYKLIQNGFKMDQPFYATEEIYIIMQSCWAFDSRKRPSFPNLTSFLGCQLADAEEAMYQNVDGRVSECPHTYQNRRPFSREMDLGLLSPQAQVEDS

FLT3(D835Y) = molecular target: T3, FLT3(D835Y) (Homo sapiens, UniProt P36888, D835Y)
T3 construct: purchased Eurofins DiscoverX KINOMEscan (scanTK)
T3 sequence (P36888 27-993 D835Y): T2 sequence (P36888 27-993 D835V) with V809Y

FLT3(ITD,F691L) = system: FLT3(ITD,F691L)
HCK = molecular target: T4, HCK (Homo sapiens, UniProt P08631)
T4 construct: purchased Eurofins DiscoverX KINOMEscan (scanTK)

KIT = molecular target: T5, KIT (Homo sapiens, UniProt P10721)
T5 construct: purchased Eurofins DiscoverX KINOMEscan (scanTK)

RET(M918T) = molecular target: T6, RET(M918T) (Homo sapiens, UniProt P07949, M918T)
T6 construct: purchased Eurofins DiscoverX KINOMEscan (scanTK)

RET(V804M) = molecular target: T7, RET(V804M) (Homo sapiens, UniProt P07949, V804M)
T7 construct: purchased Eurofins DiscoverX KINOMEscan (scanTK)

ROS1 = molecular target: T8, ROS1 (Homo sapiens, UniProt P08922)
T8 construct: purchased Eurofins DiscoverX KINOMEscan (scanTK)

SYK = molecular target: T9, SYK (Homo sapiens, UniProt P43405)
T9 construct: purchased Eurofins DiscoverX KINOMEscan (scanTK)

T8 sequence (P08922 28-2347): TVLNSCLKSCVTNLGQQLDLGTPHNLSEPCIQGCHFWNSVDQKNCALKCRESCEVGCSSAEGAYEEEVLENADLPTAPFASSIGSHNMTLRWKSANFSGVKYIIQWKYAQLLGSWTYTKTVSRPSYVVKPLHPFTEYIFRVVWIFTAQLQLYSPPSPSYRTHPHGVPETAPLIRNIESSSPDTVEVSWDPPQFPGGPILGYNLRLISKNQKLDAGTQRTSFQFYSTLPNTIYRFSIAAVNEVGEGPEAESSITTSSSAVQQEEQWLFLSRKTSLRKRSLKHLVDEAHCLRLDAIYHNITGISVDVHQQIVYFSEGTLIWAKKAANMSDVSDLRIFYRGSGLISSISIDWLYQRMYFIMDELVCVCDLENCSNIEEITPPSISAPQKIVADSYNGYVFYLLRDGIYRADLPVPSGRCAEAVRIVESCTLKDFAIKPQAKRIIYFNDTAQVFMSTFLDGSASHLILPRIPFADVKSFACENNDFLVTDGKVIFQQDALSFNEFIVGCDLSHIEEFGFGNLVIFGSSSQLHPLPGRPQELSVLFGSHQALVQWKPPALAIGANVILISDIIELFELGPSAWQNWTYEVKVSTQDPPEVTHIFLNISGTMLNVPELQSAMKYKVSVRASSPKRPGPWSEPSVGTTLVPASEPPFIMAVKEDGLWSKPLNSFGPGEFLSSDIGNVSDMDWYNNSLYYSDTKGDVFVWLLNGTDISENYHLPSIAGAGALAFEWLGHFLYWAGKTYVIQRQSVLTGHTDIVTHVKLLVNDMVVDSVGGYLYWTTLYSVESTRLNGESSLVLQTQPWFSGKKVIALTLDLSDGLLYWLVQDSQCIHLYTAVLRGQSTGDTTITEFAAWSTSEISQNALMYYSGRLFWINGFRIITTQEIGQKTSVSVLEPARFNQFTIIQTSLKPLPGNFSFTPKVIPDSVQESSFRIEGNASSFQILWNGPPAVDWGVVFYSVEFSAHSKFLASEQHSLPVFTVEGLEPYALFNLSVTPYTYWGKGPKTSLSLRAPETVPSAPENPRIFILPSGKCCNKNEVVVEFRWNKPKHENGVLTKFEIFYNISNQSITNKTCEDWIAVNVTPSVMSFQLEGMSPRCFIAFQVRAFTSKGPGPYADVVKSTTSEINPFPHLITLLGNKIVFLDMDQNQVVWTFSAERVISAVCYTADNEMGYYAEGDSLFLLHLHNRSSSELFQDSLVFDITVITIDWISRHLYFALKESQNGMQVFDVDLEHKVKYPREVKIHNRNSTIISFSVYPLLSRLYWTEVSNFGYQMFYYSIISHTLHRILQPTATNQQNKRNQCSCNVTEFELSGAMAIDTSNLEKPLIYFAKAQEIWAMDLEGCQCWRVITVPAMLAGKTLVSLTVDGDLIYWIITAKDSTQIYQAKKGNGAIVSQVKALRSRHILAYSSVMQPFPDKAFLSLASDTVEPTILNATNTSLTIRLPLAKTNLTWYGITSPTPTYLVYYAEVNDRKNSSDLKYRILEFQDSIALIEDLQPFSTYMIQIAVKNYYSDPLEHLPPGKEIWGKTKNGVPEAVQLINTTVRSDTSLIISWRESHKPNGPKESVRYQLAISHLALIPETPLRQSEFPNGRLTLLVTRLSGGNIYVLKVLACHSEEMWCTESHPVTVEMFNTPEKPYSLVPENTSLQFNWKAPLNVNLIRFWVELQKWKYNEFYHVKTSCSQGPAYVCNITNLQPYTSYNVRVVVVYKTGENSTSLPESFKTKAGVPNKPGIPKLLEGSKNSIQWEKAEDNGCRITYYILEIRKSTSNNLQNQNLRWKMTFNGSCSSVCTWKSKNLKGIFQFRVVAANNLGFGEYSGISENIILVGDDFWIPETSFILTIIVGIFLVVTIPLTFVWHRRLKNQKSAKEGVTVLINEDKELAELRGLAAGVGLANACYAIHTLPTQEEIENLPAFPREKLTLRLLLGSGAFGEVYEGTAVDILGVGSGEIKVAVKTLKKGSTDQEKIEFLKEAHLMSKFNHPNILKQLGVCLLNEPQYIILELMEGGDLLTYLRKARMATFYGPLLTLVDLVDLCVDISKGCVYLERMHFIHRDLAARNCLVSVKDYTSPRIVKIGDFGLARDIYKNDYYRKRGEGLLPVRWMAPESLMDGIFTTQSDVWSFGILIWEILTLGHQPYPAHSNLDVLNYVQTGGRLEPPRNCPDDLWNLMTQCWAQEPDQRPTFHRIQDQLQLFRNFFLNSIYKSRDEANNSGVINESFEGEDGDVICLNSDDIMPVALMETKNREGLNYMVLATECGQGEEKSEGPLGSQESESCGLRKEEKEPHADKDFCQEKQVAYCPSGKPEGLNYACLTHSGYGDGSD
T5 sequence (P10721 26-976): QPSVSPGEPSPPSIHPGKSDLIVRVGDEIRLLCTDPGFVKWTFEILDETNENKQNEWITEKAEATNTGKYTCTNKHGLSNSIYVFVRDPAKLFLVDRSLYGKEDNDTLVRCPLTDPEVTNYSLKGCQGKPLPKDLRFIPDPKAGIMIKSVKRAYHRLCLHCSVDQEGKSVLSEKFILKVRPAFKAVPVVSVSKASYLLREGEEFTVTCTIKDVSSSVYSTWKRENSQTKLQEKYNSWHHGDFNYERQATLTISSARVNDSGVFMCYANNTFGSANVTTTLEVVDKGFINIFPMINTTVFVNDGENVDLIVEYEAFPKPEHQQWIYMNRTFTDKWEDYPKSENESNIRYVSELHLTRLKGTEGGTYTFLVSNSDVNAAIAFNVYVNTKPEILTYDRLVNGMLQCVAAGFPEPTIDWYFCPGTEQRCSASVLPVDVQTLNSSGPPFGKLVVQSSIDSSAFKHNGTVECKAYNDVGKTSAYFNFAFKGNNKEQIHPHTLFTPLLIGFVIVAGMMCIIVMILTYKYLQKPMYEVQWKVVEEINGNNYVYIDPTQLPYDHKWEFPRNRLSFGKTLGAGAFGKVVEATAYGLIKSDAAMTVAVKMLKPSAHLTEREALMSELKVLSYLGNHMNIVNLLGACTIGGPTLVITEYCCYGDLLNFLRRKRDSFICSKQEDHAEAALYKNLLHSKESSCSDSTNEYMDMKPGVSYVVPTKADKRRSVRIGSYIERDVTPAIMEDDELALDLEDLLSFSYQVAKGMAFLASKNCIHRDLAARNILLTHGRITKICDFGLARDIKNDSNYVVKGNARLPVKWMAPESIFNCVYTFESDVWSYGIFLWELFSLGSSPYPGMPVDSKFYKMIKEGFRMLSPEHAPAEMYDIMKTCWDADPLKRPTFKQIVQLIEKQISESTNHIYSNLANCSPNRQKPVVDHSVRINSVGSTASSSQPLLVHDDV
T4 sequence (P08631 whole entry): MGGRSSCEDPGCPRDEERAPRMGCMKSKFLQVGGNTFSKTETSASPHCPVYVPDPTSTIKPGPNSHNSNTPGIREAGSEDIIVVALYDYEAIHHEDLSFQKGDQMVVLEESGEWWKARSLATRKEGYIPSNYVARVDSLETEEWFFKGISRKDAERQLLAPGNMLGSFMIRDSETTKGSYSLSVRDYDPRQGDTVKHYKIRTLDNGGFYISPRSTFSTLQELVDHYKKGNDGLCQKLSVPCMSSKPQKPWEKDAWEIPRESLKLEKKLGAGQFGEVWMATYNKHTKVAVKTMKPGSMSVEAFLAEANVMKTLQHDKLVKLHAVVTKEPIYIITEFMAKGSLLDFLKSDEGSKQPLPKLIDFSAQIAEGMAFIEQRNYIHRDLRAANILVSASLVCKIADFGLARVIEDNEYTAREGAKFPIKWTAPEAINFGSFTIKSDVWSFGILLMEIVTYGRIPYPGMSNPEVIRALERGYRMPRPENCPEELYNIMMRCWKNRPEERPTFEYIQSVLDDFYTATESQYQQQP
T7 sequence (P07949 29-1114 V804M): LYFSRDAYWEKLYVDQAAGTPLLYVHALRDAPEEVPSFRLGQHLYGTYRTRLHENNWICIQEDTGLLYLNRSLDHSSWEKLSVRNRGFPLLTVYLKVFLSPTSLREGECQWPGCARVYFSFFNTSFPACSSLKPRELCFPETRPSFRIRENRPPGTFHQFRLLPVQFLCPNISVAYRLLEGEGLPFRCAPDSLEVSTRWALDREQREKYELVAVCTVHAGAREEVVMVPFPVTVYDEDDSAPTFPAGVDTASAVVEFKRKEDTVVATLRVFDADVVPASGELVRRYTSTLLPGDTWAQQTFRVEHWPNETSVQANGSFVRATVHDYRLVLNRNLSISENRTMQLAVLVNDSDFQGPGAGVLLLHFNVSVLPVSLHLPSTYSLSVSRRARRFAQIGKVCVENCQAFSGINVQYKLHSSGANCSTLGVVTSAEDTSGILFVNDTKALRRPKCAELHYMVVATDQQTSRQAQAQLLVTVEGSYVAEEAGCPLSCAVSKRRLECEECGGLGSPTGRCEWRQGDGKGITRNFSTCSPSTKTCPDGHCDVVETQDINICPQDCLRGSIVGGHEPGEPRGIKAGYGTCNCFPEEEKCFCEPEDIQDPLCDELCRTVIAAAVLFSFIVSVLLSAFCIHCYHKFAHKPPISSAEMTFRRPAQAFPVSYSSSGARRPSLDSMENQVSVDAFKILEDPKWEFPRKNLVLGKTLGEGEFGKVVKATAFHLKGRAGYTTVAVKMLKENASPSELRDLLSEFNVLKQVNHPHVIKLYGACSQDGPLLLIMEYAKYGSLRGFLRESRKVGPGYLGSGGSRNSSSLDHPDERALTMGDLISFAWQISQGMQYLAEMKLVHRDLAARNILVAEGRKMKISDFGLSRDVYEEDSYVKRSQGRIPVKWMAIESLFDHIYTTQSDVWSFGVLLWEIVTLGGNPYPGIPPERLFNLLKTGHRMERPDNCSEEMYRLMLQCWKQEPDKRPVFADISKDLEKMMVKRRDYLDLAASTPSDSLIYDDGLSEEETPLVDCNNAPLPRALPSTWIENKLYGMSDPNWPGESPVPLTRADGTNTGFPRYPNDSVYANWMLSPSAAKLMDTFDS
T6 sequence (P07949 29-1114 M918T): as the sequence (P07949 29-1114 V804M) above, with M776V, M890T counted along it

Work on CNC(=O)c1cnc(S(C)(=O)=O)nc1N1CCCC(n2nc(-c3ccc(Oc4ccccc4)cc3)c3c(N)ncnc32)C1 (stereo not shown) [Compound 8d, 4-(3-(4-Amino-3-(4-phenoxyphenyl)-1H-pyrazolo[3,4-d]pyrimidin-1-yl)piperidin-1-yl)-N-methyl-2-(methylsulfonyl)pyrimidine-5-carboxamide] yielded a difference in %Control versus compound Ib at 1 µM ([1]; @1000nM) of 28%, a remaining binding at 1 µM ([1]; @1000nM, read-out: %Control) of 42% and a remaining binding at 1 µM ([1]; read-out: %Control @1000nM) of 42%. The difference in %Control versus compound Ib at 1 µM (FLT3(D835V); @1000nM) was 13.1%, the remaining binding at 1 µM (FLT3(D835V); @1000nM, read-out: %Control) was 23% and the remaining binding at 1 µM (FLT3(D835V); read-out: %Control @1000nM) was 23%. The difference in %Control versus compound Ib at 1 µM (FLT3(D835Y); @1000nM) was 10%, the remaining binding at 1 µM (FLT3(D835Y); @1000nM, read-out: %Control) was 59% and the remaining binding at 1 µM (FLT3(D835Y); read-out: %Control @1000nM) was 59%. For the same compound, the “%Control @1000nM” value (FLT3(ITD,F691L)) was 100%, the “% difference (compound - Ib %Control)” value (FLT3(ITD,F691L); @1000nM) was 0% and the “%Control” value (FLT3(ITD,F691L); @1000nM) was 100%. For the same compound, the difference in %Control from compound Ib at 1 µM (HCK; @1000nM) was 6.8%, the remaining binding at 1 µM (HCK; @1000nM, read-out: %Control) was 12% and the remaining binding at 1 µM (HCK; read-out: %Control @1000nM) was 12%. It also gave a difference in %Control versus compound Ib at 1 µM (KIT; @1000nM) of 58%, a remaining binding at 1 µM (KIT; @1000nM, read-out: %Control) of 99% and a remaining binding at 1 µM (KIT; read-out: %Control @1000nM) of 99%. The remaining binding at 1 µM (RET(M918T); @1000nM, read-out: %Control) was 32%, the remaining binding at 1 µM (RET(M918T); read-out: %Control @1000nM) was 32% and the remaining binding at 1 µM (RET(V804M); @1000nM, read-out: %Control) was 100%. For the same compound, the remaining binding at 1 µM (RET(V804M); read-out: %Control @1000nM) was 100%, the %Control difference versus reference Ib at 1 µM (ROS1; @1000nM, read-out: % difference (compound - Ib %Control)) was 3% and the remaining binding at 1 µM (ROS1; @1000nM, read-out: %Control) was 100%. For the same compound, the remaining binding at 1 µM (ROS1; read-out: %Control @1000nM) was 100%, the difference in %Control versus compound Ib at 1 µM (SYK; @1000nM) was -2% and the remaining binding at 1 µM (SYK; @1000nM, read-out: %Control) was 89%. The remaining binding at 1 µM (SYK; read-out: %Control @1000nM) was 89%.
